According to patent US7754751B2, “Preferential inhibition of release of pro-inflammatory cytokines” (Yung Shin Pharmaceutical Ind. Co., Ltd., priority 2004, dated 2010):

What was measured:
[1] = tested on: interleukin-4; assay: LPS-induced interleukin-4 release in human PBMC; assay type: cell-based; conditions: 10 μM compound with LPS 25 μg/ml, 24 h
Method: (§1) Approximately 450 ml of blood was obtained from healthy human volunteers and diluted with RPMI 1640 culture medium. A Ficoll gradient (MSL; Eurobio, les Ulis, France) was used to isolate human peripheral blood mononuclear leukocytes (PBMC). The volume ratio of blood, RPMI 1640 culture medium, and MSL was 2:4:1. PBMC were obtained by centrifuging the diluted blood at 500 g at 15° C. for 20 min and washed once with RPMI 1640. The cell pellets were resuspended at a final concentration of 6×10^6 cells/ml of the same medium supplemented with 5% heat-inactivated normal human serum (a pool of sera from healthy volunteers) and antibiotics (penicillin 100 UI/ml and streptomycin 100 μg/ml). Aliquots of 500 μl of the cell suspension were dispensed into each well of a 24-well plate and incubated at 37° C. in a 5% CO2-95% air incubator in a humidified atmosphere. To wells were added lipopolysaccharide (LPS, 25 μg/ml) from smooth E. Coli 0111:B4 alone or LPS and Compound 1 (10 μM) together. After 24 h, the supernatants were collected, centrifuged at 400 g for 10 min at 15° C. and stored at −20° C. Cytokines were assayed using commercial kits manufactured by R & D Systems (Abingdon, UK). The concentrations of the cytokines were determined using an internal standard according to the manufacturer's instructions.

[2] = tested on: interleukin-2; assay: LPS-induced interleukin-2 release in human PBMC; assay type: cell-based; conditions: 10 μM compound with LPS 25 μg/ml, 24 h
Method: as §1

[3] = tested on: interferon-γ; assay: LPS-induced interferon-γ release in human PBMC; assay type: cell-based; conditions: 10 μM compound with LPS 25 μg/ml, 24 h
Method: as §1

[4] = tested on: interleukin-10; assay: LPS-induced interleukin-10 release in human PBMC; assay type: cell-based; conditions: 10 μM compound with LPS 25 μg/ml, 24 h
Method: as §1

[5] = tested on: NF-κB; assay: NF-κB DNA binding activity in tissue nuclear extracts of LPS-treated mice (EMSA, ELISA-based Trans-AM p65 kit); assay type: in vivo; conditions: ICR mice, LPS 60 mg/kg i.p., compound 10 mg/kg orally in 0.5% carboxymethyl cellulose; lung, spleen, kidney extracts
Method: Mice (25-30 g, ICR strain) were injected intraperitoneally with LPS (60 mg/kg). Most of them were orally treated with Compound 1 (10 mg/kg) in 0.5% carboxymethyl cellulose, and the rest (control mice) were orally treated with vehicle. The control mice died within 27 h after the LPS administration. The mice were euthanatized with intraperitoneal administration of pentobarbital at various time intervals after the LPS administration. Nuclear extracts of lung, spleen, and kidney tissues were prepared by a standard method. NF-κB DNA binding activity was assessed by an electrophoretic mobility shift assay according to a procedure described in Pan et al., J Biomed Sci. 2002, 9: 622-630. […] The sample was then charged to native 5% polyacrylamide gels and analyzed by autoradiography. […] NF-κB DNA binding activity was also assessed with ELISA-based Trans-AM NF-κB p65 transcription factor assay kits (Active Motif Europe, […], Belgium) according to the manufacturer's instructions. […] Specificity of NF-κB activation was determined by competition experiments using NF-κB wild-type and mutant consensus oligonucleotides that were provided with the kit.

[6] = tested on: interleukin 8; assay: LPS-induced interleukin 8 release in human PBMC; assay type: cell-based; conditions: 10 μM compound with LPS 25 μg/ml, 24 h
Method: as §1

[7] = tested on: TNF-α; assay: LPS-induced TNF-α release in human PBMC; assay type: cell-based; conditions: 10 μM compound with LPS 25 μg/ml, 24 h
Method: as §1

[8] = tested on: interleukin 1β; assay: LPS-induced interleukin 1β release in human PBMC; assay type: cell-based; conditions: 10 μM compound with LPS 25 μg/ml, 24 h
Method: as §1

Work on `OCc1ccc(-c2nn(Cc3ccccc3)c3ccccc23)o1` [Compound 1, 3-(5′-hydroxymethyl-2′-furyl)-1-benzyl-indazol] yielded an inhibition at 10 µM [1] of under 10%, an inhibition at 10 µM [2] of over 30% and an inhibition at 10 µM [3] of over 30%. The inhibition at 10 µM [4] was under 10%, the “NF-κB/DNA complex level induced by LPS” value [5] was “inhibited the increase of the NF-κB/DNA complex level induced by LPS” and the inhibition at 10 µM [6] was over 80%. For the same compound, the inhibition at 10 µM [7] was over 80% and the inhibition at 10 µM [8] was over 80%.
